The test system of the assay is 958667-338-R-J2-PDC tumor spheroids viability. Nature of the assay: Anticancer human tumor 958667-338-R-J2-PDC patient-derived colon adenocarcinoma cell line growth inhibition [PI3K]. Particulars: spheroids with HUVEC and MSC; for viability, T/C: stronger effect = lower value. An excerpt: Combinatorial screen of targeted agents with the PI3K inhibitors inavolisib, alpelisib, duvelisib, and copanlisib in multi-cell type tumor spheroids
A high-throughput screen of multi-cell type tumor spheroids was designed to identify active combinations of targeted small molecules and PI3K pathway inhibitors. Complex spheroids include a stromal component modeled by human endothelial cells (HUVEC) and fibroblasts modeled by human mesenchymal stem cells (MSCs). The concentration ranges selected for each drug and investigational agent were based upon clinically achievable concentrations if the clinical Cmax of the agent was known.
Compounds. The drugs and investigational agents: inavolisib (NSC800729), alpelisib (NSC765974), duvelisib (NSC772469), copanlisib (NSC816437), ipatasertib (NSC767898), afuresertib (NSC778305), talazoparib (NSC767125), sapanisertib (NSC764658), selumetinib (NSC741078), tovorafenib (DAY101, NSC766906), vemurafenib (NSC761431), ravoxertinib (NSC781343), sotorasib (NSC818433), MRTX1133 (NSC 836407), abemaciclib (NSC 768073), palbociclib (NSC758247), venetoclax (NSC 766270), SY5609 (NSC837396), enzalutamide (NSC755605), and darolutamide (NSC825331), were obtained from the National Cancer Institute (NCI) Developmental Therapeutics Program Chemical Repository. The FDA-approved anticancer drug set is available from the NCI Developmental Therapeutics Program. […] The stock solutions were prepared in dimethyl sulfoxide (DMSO, Sigma-Aldrich, St. Louis, MO, cat. D2650) at 800-fold the tested concentration and stored at -70 degrees C prior to their use. All drugs and investigational agents were tested over a range starting from a high concentration at or near the clinical Cmax and decreasing in half-log increments. If the clinical Cmax for an agent had not been determined, the highest concentration tested was 10 microM.
Cell Culture. All cells were maintained in an incubator at 37 degrees C and 5% CO2 with 95% humidity. The PDC lines were cultured according to standard operating procedures established by the NCI PDMR (https://pdmr.cancer.gov/sops/default.htm). All PDCs were thawed and cultured in Matrigel-coated flasks prepared with a working solution of 1X Ham's F-12 nutrient mix, without supplementation (Invitrogen, Waltham, MA, cat. 11765054), 100 U/mL penicillin-streptomycin (Invitrogen, cat. 15140122), and 2.5% Matrigel (Corning Inc., Corning, NY, cat. 354248) for the first three passages. The 354836-022-R-J1-PDC, 475296-252-R-J1-PDC, and 997726-040-R-J2-PDC lines were cultured in 6A media, which includes advanced DMEM/F-12 (Thermo Fisher Scientific, cat. 12634028), 10 mM HEPES (Thermo Fisher Scientific, cat. 15630080), 1X GlutaMAX supplement (Thermo Fisher Scientific, cat. 35050061), 0.1 mg/mL primocin (InvivoGen, San Diego, CA, cat. ant-pm-2), 10% defined fetal bovine serum, heat inactivated (HyClone Laboratories Inc., Logan, UT, cat. SH30070.03HI), 50% L-WRN conditioned media (ATCC, cat. CRL-3276), 1.25 mM N-Acetyl-L-cysteine (Sigma-Aldrich, cat. A9165), 10 mM nicotinamide (Sigma-Aldrich, cat. N0636), 1X B-27 supplement (Thermo Fisher Scientific, cat. 17504044), 1X N-2 supplement (Thermo Fisher Scientific, cat. 17502048), and 10 microM Y-27632 dihydrochloride (Tocris Bioscience, Bristol, United Kingdom, cat. 1254). The 624824-186-R-J2-PDC line was cultured in 6C/Colon 1B media, which includes all 6A media components plus 50 ng/mL human EGF recombinant protein (Thermo Fisher Scientific, cat. PHG0311). […]

SMILES strings stand for the structures.

As a reminder, the IC50 is the concentration needed to halve the response being measured. By viability, T/C is commonly meant the result in the treated group divided by that in the control group, in per cent.
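Also: spheroids exposed to compounds for seven days before readout.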

Consider `C=CC(=O)N1CCN(c2nc(=O)n(-c3c(C)ccnc3C(C)C)c3nc(-c4c(O)cccc4F)c(F)cc23)C(C)C1` (stereo not drawn) + COc1c(OCCCN2CCOCC2)ccc2c3n(c(=NC(=O)c4cnc(N)nc4)nc12)CCN3, for which the IC50 is more than 10 µM (curve of first compound, second compound 0.00316 µM); more than 10 µM (curve of first compound, second compound 0.01 µM); more than 10 µM (curve of first compound, second compound 0.0316 µM); more than 10 µM (curve of first compound, second compound 0.1 µM); less than 0.0316 µM (curve of first compound, second compound 0.316 µM); less than 0.0316 µM (curve of first compound, second compound 1 µM). Besides, the viability, T/C is 97.1% (second compound 0.00316 µM, first compound 0.0316 µM); 97.6% (second compound 0.00316 µM, first compound 0.1 µM); 88.8% (second compound 0.00316 µM, first compound 0.316 µM); 117% (second compound 0.00316 µM, first compound 1 µM); 103% (second compound 0.00316 µM, first compound 3.16 µM); 121% (second compound 0.00316 µM, first compound 10 µM). In addition, the viability, T/C is, setting by setting: (second compound 0.01 µM, first compound 0.0316 µM) 103%; (second compound 0.01 µM, first compound 0.1 µM) 103%; (second compound 0.01 µM, first compound 0.316 µM) 87%; (second compound 0.01 µM, first compound 1 µM) 92.6%; (second compound 0.01 µM, first compound 3.16 µM) 107%; (second compound 0.01 µM, first compound 10 µM) 94%. In addition, the viability, T/C (second compound 0.0316 µM, first compound 0.0316 µM) was 82.1%; the viability, T/C (second compound 0.0316 µM, first compound 0.1 µM) was 83%; the viability, T/C (second compound 0.0316 µM, first compound 0.316 µM) is 71.8%; the viability, T/C (second compound 0.0316 µM, first compound 1 µM) was 72.4%; the viability, T/C (second compound 0.0316 µM, first compound 3.16 µM) is 78.2%; the viability, T/C (second compound 0.0316 µM, first compound 10 µM) was 69.9%. The viability, T/C was 61% (second compound 0.1 µM, first compound 0.0316 µM); 72.7% (second compound 0.1 µM, first compound 0.1 µM); 52.9% (second compound 0.1 µM, first compound 0.316 µM); 62.6% (second compound 0.1 µM, first compound 1 µM); 72.4% (second compound 0.1 µM, first compound 3.16 µM); 64.2% (second compound 0.1 µM, first compound 10 µM). The viability, T/C is 36.3% (second compound 0.316 µM, first compound 0.0316 µM); 36% (second compound 0.316 µM, first compound 0.1 µM); 44.4% (second compound 0.316 µM, first compound 0.316 µM); 42% (second compound 0.316 µM, first compound 1 µM); 47.3% (second compound 0.316 µM, first compound 3.16 µM); 46.1% (second compound 0.316 µM, first compound 10 µM). The viability, T/C is, setting by setting: (second compound 1 µM, first compound 0.0316 µM) 22.6%; (second compound 1 µM, first compound 0.1 µM) 23.1%; (second compound 1 µM, first compound 0.316 µM) 18.8%; (second compound 1 µM, first compound 1 µM) 21.2%; (second compound 1 µM, first compound 3.16 µM) 25.3%; (second compound 1 µM, first compound 10 µM) 18.2%.

Consider `COc1c(OCCCN2CCOCC2)ccc2c3n(c(=NC(=O)c4cnc(N)nc4)nc12)CCN3`, for which the viability, T/C reads like this: (compound 0.00316 µM) 92.6% [middle of 8 runs]; (compound 0.0316 µM) 71.9% [middle of 8 runs]; (compound 0.1 µM) 54% [middle of 8 runs]; (compound 0.316 µM) 38.8% [middle of 8 runs]; (compound 1 µM) 18.2% [middle of 8 runs]. For the same compound, the 50% inhibitory concentration (IC50) (compound alone, run of 06/13/2023) is 147 nM [middle of 8 runs].
